Source: patent US11767310B2, “Nicotinamide RIPK1 inhibitors” (AbbVie Inc., priority 2021, dated 2023)
Where two headings read alike, the source gives them in different places.

How the values were obtained:
Experiment in all cases: Kinase binding screen
Details in all cases: read-out: Percent Control at 100 nM Compound Concentration
MELK = MELK (Homo sapiens (Human), UniProt Q14680)
RET = RET (Homo sapiens (Human), UniProt P07949)
CSNK1D = CSNK1D (Homo sapiens (Human), UniProt P48730)
KIT-autoinhibited = KIT-autoinhibited (Homo sapiens (Human), UniProt P10721)
PRKD3 = PRKD3 (Homo sapiens (Human), UniProt O94806)
CSF1R-autoinhibited = CSF1R-autoinhibited (Homo sapiens (Human), UniProt P07333)
ERBB4 = ERBB4 (Homo sapiens (Human), UniProt Q15303)
ANKK1 = ANKK1 (Homo sapiens (Human), UniProt Q8NFD2)
SGK3 = SGK3 (Homo sapiens (Human), UniProt Q96BR1)
[1] = biological target: ABL1(T315I)-nonphosphorylated (Homo sapiens (Human), UniProt P00519, T315I)
NEK7 = NEK7 (Homo sapiens (Human), UniProt Q8TDX7)
ASK1 = ASK1 (Homo sapiens (Human), UniProt Q99683)
PDPK1 = PDPK1 (Homo sapiens (Human), UniProt O15530)
CDK5 = CDK5 (Homo sapiens (Human), UniProt Q00535)
ULK2 = ULK2 (Homo sapiens (Human), UniProt Q8IYT8)
CSNK1G3 = CSNK1G3 (Homo sapiens (Human), UniProt Q9Y6M4)
AMPK-alpha2 = AMPK-alpha2 (Homo sapiens (Human), UniProt P54646)
MEK4 = MEK4 (Homo sapiens (Human), UniProt P45985)
PFTK1 = PFTK1 (Homo sapiens (Human), UniProt O94921)
MERTK = MERTK (Homo sapiens (Human), UniProt Q12866)
CDK7 = CDK7 (Homo sapiens (Human), UniProt P50613)
DYRK1A = DYRK1A (Homo sapiens (Human), UniProt Q13627)
HIPK4 = HIPK4 (Homo sapiens (Human), UniProt Q8NE63)
DLK = DLK (Homo sapiens (Human), UniProt Q12852)
DRAK2 = DRAK2 (Homo sapiens (Human), UniProt O94768)
PHKG1 = PHKG1 (Homo sapiens (Human), UniProt Q16816)
CAMK4 = CAMK4 (Homo sapiens (Human), UniProt Q16566)
MAP3K4 = MAP3K4 (Homo sapiens (Human), UniProt Q9Y6R4)
TAK1 = TAK1 (Homo sapiens (Human), UniProt O43318)

Chain of HIPK4 (Q8NE63 whole entry): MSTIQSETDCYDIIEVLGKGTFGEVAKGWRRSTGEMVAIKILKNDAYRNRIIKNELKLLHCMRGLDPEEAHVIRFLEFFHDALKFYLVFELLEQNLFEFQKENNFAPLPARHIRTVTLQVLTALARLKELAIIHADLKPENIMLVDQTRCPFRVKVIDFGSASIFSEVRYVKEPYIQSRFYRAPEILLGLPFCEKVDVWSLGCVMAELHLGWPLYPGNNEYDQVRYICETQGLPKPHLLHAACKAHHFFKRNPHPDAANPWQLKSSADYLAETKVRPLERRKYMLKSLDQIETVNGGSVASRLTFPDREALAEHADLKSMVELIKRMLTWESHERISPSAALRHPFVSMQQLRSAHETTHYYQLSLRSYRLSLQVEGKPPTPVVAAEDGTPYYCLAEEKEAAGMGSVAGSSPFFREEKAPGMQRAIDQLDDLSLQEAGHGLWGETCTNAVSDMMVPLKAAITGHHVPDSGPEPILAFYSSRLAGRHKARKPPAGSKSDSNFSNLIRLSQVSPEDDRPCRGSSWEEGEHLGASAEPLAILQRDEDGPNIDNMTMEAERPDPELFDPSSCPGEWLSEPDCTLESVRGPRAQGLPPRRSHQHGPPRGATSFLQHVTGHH
Chain of DLK (Q12852 whole entry): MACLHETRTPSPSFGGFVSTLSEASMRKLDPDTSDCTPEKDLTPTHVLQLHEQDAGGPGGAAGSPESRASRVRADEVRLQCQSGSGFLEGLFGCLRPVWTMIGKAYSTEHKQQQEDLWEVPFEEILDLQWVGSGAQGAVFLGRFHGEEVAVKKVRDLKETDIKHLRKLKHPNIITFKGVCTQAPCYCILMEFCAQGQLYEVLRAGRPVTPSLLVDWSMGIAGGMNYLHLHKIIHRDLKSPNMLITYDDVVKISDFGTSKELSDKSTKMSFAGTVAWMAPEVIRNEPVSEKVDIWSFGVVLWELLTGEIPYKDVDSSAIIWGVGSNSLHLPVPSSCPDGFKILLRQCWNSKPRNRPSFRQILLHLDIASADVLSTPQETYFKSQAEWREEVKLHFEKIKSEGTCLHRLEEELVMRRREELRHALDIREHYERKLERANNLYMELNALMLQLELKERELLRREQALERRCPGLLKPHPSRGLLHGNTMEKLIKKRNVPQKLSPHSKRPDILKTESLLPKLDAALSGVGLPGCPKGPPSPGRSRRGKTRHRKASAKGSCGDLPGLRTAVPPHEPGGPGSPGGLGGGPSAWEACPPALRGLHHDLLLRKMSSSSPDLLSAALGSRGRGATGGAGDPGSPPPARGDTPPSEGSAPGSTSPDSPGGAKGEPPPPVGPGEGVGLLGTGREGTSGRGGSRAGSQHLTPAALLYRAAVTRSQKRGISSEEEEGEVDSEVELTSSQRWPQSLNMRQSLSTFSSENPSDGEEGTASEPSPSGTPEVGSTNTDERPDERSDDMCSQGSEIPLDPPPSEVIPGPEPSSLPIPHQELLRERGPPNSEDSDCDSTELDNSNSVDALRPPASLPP
Chain of PHKG1 (Q16816 whole entry): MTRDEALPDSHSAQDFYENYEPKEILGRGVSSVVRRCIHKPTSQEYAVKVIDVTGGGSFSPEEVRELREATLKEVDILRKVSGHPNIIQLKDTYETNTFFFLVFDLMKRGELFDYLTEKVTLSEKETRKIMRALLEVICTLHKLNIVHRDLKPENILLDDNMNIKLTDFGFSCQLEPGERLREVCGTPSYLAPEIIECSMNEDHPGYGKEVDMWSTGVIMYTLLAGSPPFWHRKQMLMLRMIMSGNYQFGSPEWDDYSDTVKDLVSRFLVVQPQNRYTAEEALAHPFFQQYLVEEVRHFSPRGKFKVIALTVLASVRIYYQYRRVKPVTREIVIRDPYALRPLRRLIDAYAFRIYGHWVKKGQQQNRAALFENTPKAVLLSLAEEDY
Chain of MEK4 (P45985 whole entry): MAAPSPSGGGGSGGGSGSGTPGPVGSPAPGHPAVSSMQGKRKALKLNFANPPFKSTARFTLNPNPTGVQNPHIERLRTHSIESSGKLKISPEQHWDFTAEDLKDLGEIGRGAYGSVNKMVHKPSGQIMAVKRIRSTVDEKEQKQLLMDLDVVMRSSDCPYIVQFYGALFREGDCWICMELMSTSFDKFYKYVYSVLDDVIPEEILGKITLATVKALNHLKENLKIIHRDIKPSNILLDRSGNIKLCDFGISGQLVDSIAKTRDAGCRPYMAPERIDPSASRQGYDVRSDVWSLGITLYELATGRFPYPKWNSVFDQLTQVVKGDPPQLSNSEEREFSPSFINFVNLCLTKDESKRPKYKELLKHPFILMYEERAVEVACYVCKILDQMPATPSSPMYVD
Chain of ANKK1 (Q8NFD2 whole entry): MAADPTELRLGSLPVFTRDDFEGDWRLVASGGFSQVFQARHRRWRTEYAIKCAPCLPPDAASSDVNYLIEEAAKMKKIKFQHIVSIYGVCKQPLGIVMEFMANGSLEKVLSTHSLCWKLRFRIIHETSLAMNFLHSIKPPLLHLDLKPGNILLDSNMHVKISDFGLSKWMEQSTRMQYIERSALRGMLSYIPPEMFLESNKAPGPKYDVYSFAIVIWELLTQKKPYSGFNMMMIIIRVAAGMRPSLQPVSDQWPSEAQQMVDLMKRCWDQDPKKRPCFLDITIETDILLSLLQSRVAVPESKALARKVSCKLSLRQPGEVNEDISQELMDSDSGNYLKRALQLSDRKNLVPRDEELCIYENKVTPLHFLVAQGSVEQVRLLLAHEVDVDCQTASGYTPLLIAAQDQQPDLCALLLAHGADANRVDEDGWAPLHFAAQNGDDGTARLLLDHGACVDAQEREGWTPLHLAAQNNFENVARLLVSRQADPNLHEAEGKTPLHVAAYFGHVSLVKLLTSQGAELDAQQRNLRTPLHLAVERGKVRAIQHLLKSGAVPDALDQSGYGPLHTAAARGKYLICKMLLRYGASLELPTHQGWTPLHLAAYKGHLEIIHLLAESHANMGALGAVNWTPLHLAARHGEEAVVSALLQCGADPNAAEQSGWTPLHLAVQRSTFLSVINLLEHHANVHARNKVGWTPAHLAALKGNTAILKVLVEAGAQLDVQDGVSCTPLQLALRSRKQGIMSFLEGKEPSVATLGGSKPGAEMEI
Chain of MAP3K4 (Q9Y6R4 whole entry): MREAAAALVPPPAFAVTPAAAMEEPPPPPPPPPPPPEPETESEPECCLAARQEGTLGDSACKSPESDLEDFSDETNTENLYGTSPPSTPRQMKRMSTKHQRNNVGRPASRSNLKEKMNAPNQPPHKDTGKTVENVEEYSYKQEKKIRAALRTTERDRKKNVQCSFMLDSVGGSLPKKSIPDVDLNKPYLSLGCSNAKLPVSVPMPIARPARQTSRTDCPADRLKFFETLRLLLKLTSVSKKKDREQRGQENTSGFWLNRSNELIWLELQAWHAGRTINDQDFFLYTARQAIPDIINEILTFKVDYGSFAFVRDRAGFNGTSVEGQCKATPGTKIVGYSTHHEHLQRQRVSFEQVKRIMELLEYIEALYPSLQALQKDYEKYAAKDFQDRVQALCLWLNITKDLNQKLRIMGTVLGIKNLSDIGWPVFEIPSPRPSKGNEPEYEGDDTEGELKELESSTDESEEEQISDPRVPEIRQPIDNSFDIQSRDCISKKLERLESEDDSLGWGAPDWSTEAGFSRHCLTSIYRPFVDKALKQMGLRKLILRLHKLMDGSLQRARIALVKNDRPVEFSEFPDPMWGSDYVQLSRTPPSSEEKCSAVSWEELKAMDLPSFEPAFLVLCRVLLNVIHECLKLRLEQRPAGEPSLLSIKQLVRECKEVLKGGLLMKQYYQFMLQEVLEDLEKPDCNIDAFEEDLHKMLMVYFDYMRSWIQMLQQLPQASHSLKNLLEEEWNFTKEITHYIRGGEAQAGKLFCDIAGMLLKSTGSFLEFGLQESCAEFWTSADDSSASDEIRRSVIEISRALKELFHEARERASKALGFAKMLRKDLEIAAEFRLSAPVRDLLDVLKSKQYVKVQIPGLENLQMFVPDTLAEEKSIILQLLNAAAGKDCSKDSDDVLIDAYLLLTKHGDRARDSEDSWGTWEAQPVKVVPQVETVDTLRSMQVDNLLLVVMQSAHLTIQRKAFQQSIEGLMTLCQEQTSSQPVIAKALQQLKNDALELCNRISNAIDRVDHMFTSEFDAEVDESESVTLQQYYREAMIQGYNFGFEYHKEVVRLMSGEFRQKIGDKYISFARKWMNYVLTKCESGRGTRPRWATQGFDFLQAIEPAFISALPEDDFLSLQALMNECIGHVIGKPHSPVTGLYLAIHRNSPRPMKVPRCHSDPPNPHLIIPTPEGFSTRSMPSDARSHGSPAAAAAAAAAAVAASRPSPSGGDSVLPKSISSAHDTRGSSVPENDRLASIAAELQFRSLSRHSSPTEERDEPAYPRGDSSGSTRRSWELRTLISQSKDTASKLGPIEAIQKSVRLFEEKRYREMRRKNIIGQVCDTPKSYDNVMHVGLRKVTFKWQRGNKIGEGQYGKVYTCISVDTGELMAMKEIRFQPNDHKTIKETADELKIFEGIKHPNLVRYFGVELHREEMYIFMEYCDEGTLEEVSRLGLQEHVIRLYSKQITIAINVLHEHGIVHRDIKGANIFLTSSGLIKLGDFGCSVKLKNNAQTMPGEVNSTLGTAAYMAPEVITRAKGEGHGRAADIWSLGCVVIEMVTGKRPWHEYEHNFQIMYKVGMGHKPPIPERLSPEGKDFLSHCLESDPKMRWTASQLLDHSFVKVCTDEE
Chain of CSNK1D (P48730 whole entry): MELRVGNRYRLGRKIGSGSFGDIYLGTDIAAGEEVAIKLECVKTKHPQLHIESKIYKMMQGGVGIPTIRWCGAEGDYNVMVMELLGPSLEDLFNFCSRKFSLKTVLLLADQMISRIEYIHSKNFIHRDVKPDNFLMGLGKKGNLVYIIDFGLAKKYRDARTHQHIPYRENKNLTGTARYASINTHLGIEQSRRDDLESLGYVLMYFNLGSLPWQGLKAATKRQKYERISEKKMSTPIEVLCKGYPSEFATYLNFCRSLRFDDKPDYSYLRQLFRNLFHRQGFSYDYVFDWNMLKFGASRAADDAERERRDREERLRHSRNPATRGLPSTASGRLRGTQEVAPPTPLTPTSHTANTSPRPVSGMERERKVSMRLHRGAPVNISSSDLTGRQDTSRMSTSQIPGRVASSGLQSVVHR

## CN(C[C@@H](O)Cc1ccccc1)C(=O)c1cncc(C#Cc2cnn(C(F)F)c2)c1 [Example 2, (S)-5-((1-(difluoromethyl)-1H-pyrazol-4-yl)ethynyl)-N-(2-hydroxy-3-phenylpropyl)-N-methylnicotinamide]
MELK; MELK
  remaining activity at 0.1 µM: 77%
RET; RET
  remaining activity at 0.1 µM: 100%
CSNK1D; CSNK1D
  remaining activity at 0.1 µM: 100%
KIT-autoinhibited; KIT-autoinhibited
  remaining activity at 0.1 µM: 94%
PRKD3; PRKD3
  remaining activity at 0.1 µM: 100%
CSF1R-autoinhibited; CSF1R-autoinhibited
  remaining activity at 0.1 µM: 99%
ERBB4; ERBB4
  remaining activity at 0.1 µM: 94%
ANKK1; ANKK1
  remaining activity at 0.1 µM: 100%
SGK3; SGK3
  remaining activity at 0.1 µM: 100%
[1]; ABL1(T315I)-nonphosphorylated
  remaining activity at 0.1 µM: 100%
NEK7; NEK7
  remaining activity at 0.1 µM: 100%
ASK1; ASK1
  remaining activity at 0.1 µM: 88%
PDPK1; PDPK1
  remaining activity at 0.1 µM: 99%
CDK5; CDK5
  remaining activity at 0.1 µM: 100%
ULK2; ULK2
  remaining activity at 0.1 µM: 100%
CSNK1G3; CSNK1G3
  remaining activity at 0.1 µM: 99%
AMPK-alpha2; AMPK-alpha2
  remaining activity at 0.1 µM: 89%
MEK4; MEK4
  remaining activity at 0.1 µM: 100%
PFTK1; PFTK1
  remaining activity at 0.1 µM: 100%
MERTK; MERTK
  remaining activity at 0.1 µM: 100%
CDK7; CDK7
  remaining activity at 0.1 µM: 100%
DYRK1A; DYRK1A
  remaining activity at 0.1 µM: 90%
HIPK4; HIPK4
  remaining activity at 0.1 µM: 100%
DLK; DLK
  remaining activity at 0.1 µM: 100%
DRAK2; DRAK2
  remaining activity at 0.1 µM: 100%
PHKG1; PHKG1
  remaining activity at 0.1 µM: 100%
CAMK4; CAMK4
  remaining activity at 0.1 µM: 100%
MAP3K4; MAP3K4
  remaining activity at 0.1 µM: 100%
TAK1; TAK1
  remaining activity at 0.1 µM: 97%

## CN(C[C@H](Cc1ccccc1)OP(=O)(O)O)C(=O)c1cncc(C#Cc2cnn(C(F)F)c2)c1 [Example 19, (S)-1-(5-((1-(difluoromethyl)-1H-pyrazol-4-yl)ethynyl)-N-methylnicotinamido)-3-phenylpropan-2-yl dihydrogen phosphate]
MELK
  remaining activity at 0.1 µM: 83%
RET
  remaining activity at 0.1 µM: 100%
CSNK1D
  remaining activity at 0.1 µM: 100%
KIT-autoinhibited
  remaining activity at 0.1 µM: 94%
PRKD3
  remaining activity at 0.1 µM: 100%
CSF1R-autoinhibited
  remaining activity at 0.1 µM: 99%
ERBB4
  remaining activity at 0.1 µM: 93%
ANKK1
  remaining activity at 0.1 µM: 100%
SGK3
  remaining activity at 0.1 µM: 100%
[1]
  remaining activity at 0.1 µM: 97%
NEK7
  remaining activity at 0.1 µM: 99%
ASK1
  remaining activity at 0.1 µM: 100%
PDPK1
  remaining activity at 0.1 µM: 100%
CDK5
  remaining activity at 0.1 µM: 100%
ULK2
  remaining activity at 0.1 µM: 94%
CSNK1G3
  remaining activity at 0.1 µM: 100%
AMPK-alpha2
  remaining activity at 0.1 µM: 100%
MEK4
  remaining activity at 0.1 µM: 100%
PFTK1
  remaining activity at 0.1 µM: 100%
MERTK
  remaining activity at 0.1 µM: 100%
CDK7
  remaining activity at 0.1 µM: 100%
DYRK1A
  remaining activity at 0.1 µM: 85%
HIPK4
  remaining activity at 0.1 µM: 100%
DLK
  remaining activity at 0.1 µM: 100%
DRAK2
  remaining activity at 0.1 µM: 100%
PHKG1
  remaining activity at 0.1 µM: 100%
CAMK4
  remaining activity at 0.1 µM: 100%
MAP3K4
  remaining activity at 0.1 µM: 100%
TAK1
  remaining activity at 0.1 µM: 95%
